Laboratory results published in patent US4377574A, “Contraceptive treatment of male mammals” (The Salk Institute For Biological Studies, priority 1981, dated 1983).
Where a SMILES comes first, the peptide text is derived from it. [ ]: non-standard residue; d: D form. dPhe(4-Cl) = N[C@H](Cc1ccc(Cl)cc1)C(=O)O; NMeL = CN[C@@H](CC(C)C)C(=O)O; ΔPro = O=C(O)[C@@H]1C=CCN1

Tests used:
[1] = system: pituitary gland of mammalians; details: cited from earlier work
[2] = system: male rats; assay: contraceptive treatment of male rats, 14-day daily injection; assay type: in vivo, rat; details: 14-day treatment
Description: The peptide is used at a level effective to reduce testes and seminal vesicles weights and also to inhibit spermatogenesis after a 14-day administration to male rats. […] Prostate weights of male rats recover in 2-3 weeks and seminal vesicles weights in 4-5 weeks. It is preferred to use dosage levels in the range of from about 0.1 to about 1 milligram per rat per day, which can be administered without detrimental side effects.
(§1) Male rats (about 320 grams each) are each treated with 1 milligram of the peptide synthesized in Example I, once a day, for 14 days by injection in 0.2 ml. of corn oil. All the rats show a decrease in testes and seminal vesicles weight, spermatogenesis and plasma androgen levels.
Full recovery of testes and seminal vesicle weights and spermatogenesis ultimately occurs following cessation of the 14-day peptide administration. […] Fertility, as assessed by the ability to impregnate females, is restored in all of the rats which have not been sacrificed within 6 weeks after cessation of the injections.
as §1, with “A first group (I) of male” for “Male”, “Peptide A” for “the peptide”, “III, every day” for “I, once a day,”, “days,” for “days”, “levels. […]” for “levels.”

## [des His^2, D--Ala^6 ] LRF
[1]
  potency as an inhibitor for the release of gonadotropins relative to the same peptide with Gly in the 6-position: 3 times

## CC(=O)N1CC=C[C@H]1C(=O)N[C@H](Cc1ccc(Cl)cc1)C(=O)N[C@H](Cc1c[nH]c2ccccc12)C(=O)N[C@@H](CO)C(=O)N[C@@H](Cc1ccc(O)cc1)C(=O)N[C@H](Cc1c[nH]c2ccccc12)C(=O)N(C)[C@@H](CC(C)C)C(=O)N[C@@H](CCCNC(=N)N)C(=O)N1CCC[C@H]1C(=O)NCC(N)=O [Example I, [Ac--dehydro Pro^1, pCl--D--Phe^2,D--Trp^3,6,N^α MeLeu^7]--LRF] (Ac-[ΔPro][dPhe(4-Cl)][dW]SY[dW][NMeL]RPG-NH2)
[2]
  side effects / damage: without harmful side effects or irreversible damage
